Assay results: paper PMC10707934, “Design and Synthesis of Novel α-Methylchalcone Derivatives, Anti-Cervical Cancer Activity, and Reversal of Drug Resistance in HeLa/DDP Cells” (Molecules, 2023)

Experiments:
C33A cells = assay: MTT anti-proliferation assay, C33A; type: cell-based, human; conditions: Homo sapiens, C-33-A, 48 h, mean ± SD
Method: (§1) All cell types, at a volume of 200 µL per well, were inoculated in 96-well plates at a density of 2.5 × 10^4 cells / mL and cultured for 24 h in an incubator with 5% CO2 at 37 °C. The old culture medium was replaced with 200 µL of fresh medium per well containing positive compounds, at concentrations of 1, 6.25, 12.5, 25, 50, and 100 μM. After 48 h of culture, 20 µL per well of 5 mg·mL^−1 MTT solution was added. After 4 h of culture, the old solution was discarded, and 150 µL per well of DMSO solution was added. Using an enzyme labeler (Thermo Fisher Scientific, Multiskan GO, Waltham, MA, USA), the plates were shaken for 10 min, OD values were determined at 490 nm, and the inhibition rate was calculated. Non-linear regression fitting of the cell growth rate was carried out using SPSS 23.0, and the IC50 of the compound was calculated. The inhibition rate was calculated using the formula: [(ODempty − ODtest)/(ODempty − ODnegative group)] × 100%, (ODempty blank group absorbance, ODtest absorbance of administration group, ODnegative group without cell culture medium). Each group contained six compound holes, and the experimental results averaged three trials. Complete medium containing only cells was used as the blank control; a complete medium without cells as was used as the negative control; and cisplatin, paclitaxel, and adriamycin were used as the positive controls. The concentration gradient was the same as that used for compounds 3a–3p.

HeLa cells = assay: MTT anti-proliferation assay, HeLa; type: cell-based, human; conditions: Homo sapiens, 48 h, mean ± SD
Method: as §1, with “3a–3p. […]” for “3a–3p.”

[1] = test system: human cervical epithelial cells H8; assay: MTT toxicity assay, normal cervical epithelial cells H8; type: cell-based; conditions: Homo sapiens, Epithelial cell, 48 h, mean ± SD
Method: as §1

SiHa cells = assay: MTT anti-proliferation assay, SiHa; type: cell-based, human; conditions: Homo sapiens, 48 h, mean ± SD
Method: as §1

HeLa/DDP cells = assay: MTT anti-cisplatin-resistant cervical cancer activity, HeLa/DDP; type: cell-based, human; conditions: 48 h
Method: as §1
To mitigate the detrimental consequences arising from the fixation of resistance reversal agents, concentrations that yielded a tumor cell proliferation rate reduction of less than 10% were selected. Consequently, the inhibitory efficacy of compound 3k against HeLa/DDP cells was assessed in conjunction with cisplatin at concentrations of 0.25, 0.5, and 1 μM. The experimental procedure employed was akin to that elucidated in Section 3.3.2. The impact of verapamil (6 μM) and 3k (0.25, 0.5, and 1 μM) on P-gp expression was ascertained via Western blot experiments, employing the same methodology delineated in Section 3.3.4.

Compound | melting point [°C] | IC50 (HeLa cells) [µM] | IC50 (HeLa/DDP cells; Homo sapiens, HeLa/DDP, MTT, mean ± SD) [µM] | IC50 (C33A cells) [µM] | IC50 [1] [µM] | IC50 (SiHa cells) [µM] | resistance index (RI) (HeLa/DDP cells; HeLa/DDP versus parental HeLa)
COc1cc(OC)c(OC)cc1/C=C(\C)C(=O)c1ccc(Cl)c(Cl)c1 [Compound 3a, (E)-1-(3,4-Dichlorophenyl)-2-methyl-3-(2,4,5-trimethoxyphenyl)prop-2-en-1-one] | 129.6 to 130.5 | > 100 |  | 69.9 ± 7.18 | > 100 | 23.5 ± 4.55 | 
COc1cc(/C=C(\C)C(=O)c2ccc(Cl)c(Cl)c2)cc(OC)c1OC [Compound 3b, (E)-1-(3,4-Dichlorophenyl)-2-methyl-3-(3,4,5-trimethoxyphenyl)prop-2-en-1-One] |  | 43.8 ± 3.68 |  | 57 ± 6.27 | 57.7 ± 4.7 | 28.4 ± 2.37 | 
COc1ccc(/C=C(\C)C(=O)c2ccc(Cl)c(Cl)c2)c(OC)c1OC [Compound 3c, (E)-1-(3,4-Dichlorophenyl)-2-methyl-3-(2,3,4-trimethoxyphenyl)prop-2-en-1-one] | 114.1 to 115.5 | > 100 |  | 33.9 ± 4.99 | > 100 | 41.8 ± 5.1 | 
COc1cc(OC)c(/C=C(\C)C(=O)c2ccc(Cl)c(Cl)c2)c(OC)c1 [Compound 3d, (E)-1-(3,4-Dichlorophenyl)-2-methyl-3-(2,4,6-trimethoxyphenyl)prop-2-en-1-one] | 67.1 to 67.8 | 97.6 ± 7.61 |  | 63.7 ± 2.59 | > 100 | > 100 | 
COc1cc(OC)c(/C=C(\C)C(=O)c2ccc(Cl)cc2Cl)c(OC)c1 [Compound 3e, (E)-1-(2,4-dichlorophenyl)-2-methyl-3-(2,4,6-trimethoxyphenyl)prop-2-en-1-one] | 104.6 to 105.7 | > 100 |  | > 100 | > 100 | > 100 | 
COc1ccc(/C=C(\C)C(=O)c2ccc(Cl)c(Cl)c2)c(OC)c1 [Compound 3f, (E)-1-(3,4-dichlorophenyl)-3-(2,4-dimethoxyphenyl)-2-methylprop-2-en-1-one] | 112.3 to 113.6 | > 100 |  | 23.7 ± 4.07 | > 100 | > 100 | 
COc1cccc(OC)c1/C=C(\C)C(=O)c1ccc(Cl)c(Cl)c1 [Compound 3g, (E)-1-(3,4-dichlorophenyl)-3-(2,6-dimethoxyphenyl)-2-methylprop-2-en-1-one] | 134.4 to 135.6 | 56.1 ± 4.58 |  | 44.8 ± 2.85 | > 100 | > 100 | 
COc1cc(/C=C(\C)C(=O)c2ccc(Cl)c(Cl)c2)cc(OC)c1 [Compound 3h, (E)-1-(3,4-Dichlorophenyl)-3-(3,5-dimethoxyphenyl)-2-methylprop-2-en-1-one] | 157 to 158.1 | > 100 |  | 54.4 ± 11.5 | > 100 | > 100 | 
COc1cccc(/C=C(\C)C(=O)c2ccc(Cl)c(Cl)c2)c1OC [Compound 3i, (E)-1-(3,4-Dichlorophenyl)-3-(2,3-dimethoxyphenyl)-2-methylprop-2-en-1-one] | 99.8 to 100.7 | > 100 |  | 30.7 ± 8.84 | > 100 | > 100 | 
COc1ccc(OC)c(/C=C(\C)C(=O)c2ccc(Cl)c(Cl)c2)c1 [Compound 3j, (E)-1-(3,4-Dichlorophenyl)-3-(2,5-dimethoxyphenyl)-2-methylprop-2-en-1-one] |  | > 100 |  | 28.5 ± 3.78 | > 100 | > 100 | 

Now from value to molecule, other results behind:

melting point [°C] | IC50 (HeLa cells) [µM] | IC50 (HeLa/DDP cells; Homo sapiens, HeLa/DDP, MTT, mean ± SD) [µM] | Compound | IC50 (C33A cells) [µM] | IC50 [1] [µM] | IC50 (SiHa cells) [µM] | resistance index (RI) (HeLa/DDP cells; HeLa/DDP versus parental HeLa)
92.8 to 93.6 | > 100 |  | COc1ccccc1/C=C(\C)C(=O)c1ccc(Cl)c(Cl)c1 [Compound 3l, (E)-1-(3,4-Dichlorophenyl)-3-(2-methoxyphenyl)-2-methylprop-2-en-1-one] | 17.3 ± 2.24 | > 100 | 22.5 ± 1.36 | 
70 to 71.1 | 29.8 ± 0.98 |  | COc1ccc(/C=C(\C)C(=O)c2ccc(Cl)c(Cl)c2)cc1 [Compound 3m, (E)-1-(3,4-Dichlorophenyl)-3-(4-methoxyphenyl)-2-methylprop-2-en-1-one] | 35.1 ± 4.75 | > 100 | 67.7 ± 5.6 | 
184 to 184.8 | > 100 |  | C/C(=C\c1ccc(N(C)C)cc1)C(=O)c1ccc(Cl)c(Cl)c1 [Compound 3n, (E)-1-(3,4-Dichlorophenyl)-3-(4-(dimethylamino)phenyl)-2-methylprop-2-en-1-one] | 23.4 ± 3.42 | > 100 | > 100 | 
186.7 to 190.8 | > 100 |  | CCN(CC)c1ccc(/C=C(\C)C(=O)c2ccc(Cl)c(Cl)c2)cc1 [Compound 3o, (E)-1-(3,4-Dichlorophenyl)-3-(4-(diethylamino)phenyl)-2-methylprop-2-en-1-one] | 35 ± 4.93 | > 100 | > 100 | 
 | > 100 |  | CCN(CC)c1ccc(/C=C(\C)C(=O)c2ccc(Cl)cc2Cl)cc1 [Compound 3p, (E)-1-(2,4-Dichlorophenyl)-3-(4-(diethylamino)phenyl)-2-methylprop-2-en-1-one] | 41.4 ± 5.42 | > 100 | > 100 | 
 | 10.4 ± 1.09 | 38.3 ± 4.57 | COc1cccc2c1C(=O)c1c(O)c3c(c(O)c1C2=O)C[C@@](O)(C(=O)CO)C[C@@H]3O[C@H]1C[C@H](N)[C@H](O)[C@H](C)O1 [Doxorubicin] |  |  |  | 3.68
